# Data reported in patent US20220184008A1, “MODULATORS OF INTRACELLULAR CHLORIDE CONCENTRATION” (FONDAZIONE ISTITUTO ITALIANO DI TECNOLOGIA, priority 2019, published 2022).
# Biological target: T1, NKCC2 (Homo sapiens, UniProt Q13621)
# T1 construct: expressed in transfected cells; host or cells: HEK293
# T1 sequence (Q13621 1-1099): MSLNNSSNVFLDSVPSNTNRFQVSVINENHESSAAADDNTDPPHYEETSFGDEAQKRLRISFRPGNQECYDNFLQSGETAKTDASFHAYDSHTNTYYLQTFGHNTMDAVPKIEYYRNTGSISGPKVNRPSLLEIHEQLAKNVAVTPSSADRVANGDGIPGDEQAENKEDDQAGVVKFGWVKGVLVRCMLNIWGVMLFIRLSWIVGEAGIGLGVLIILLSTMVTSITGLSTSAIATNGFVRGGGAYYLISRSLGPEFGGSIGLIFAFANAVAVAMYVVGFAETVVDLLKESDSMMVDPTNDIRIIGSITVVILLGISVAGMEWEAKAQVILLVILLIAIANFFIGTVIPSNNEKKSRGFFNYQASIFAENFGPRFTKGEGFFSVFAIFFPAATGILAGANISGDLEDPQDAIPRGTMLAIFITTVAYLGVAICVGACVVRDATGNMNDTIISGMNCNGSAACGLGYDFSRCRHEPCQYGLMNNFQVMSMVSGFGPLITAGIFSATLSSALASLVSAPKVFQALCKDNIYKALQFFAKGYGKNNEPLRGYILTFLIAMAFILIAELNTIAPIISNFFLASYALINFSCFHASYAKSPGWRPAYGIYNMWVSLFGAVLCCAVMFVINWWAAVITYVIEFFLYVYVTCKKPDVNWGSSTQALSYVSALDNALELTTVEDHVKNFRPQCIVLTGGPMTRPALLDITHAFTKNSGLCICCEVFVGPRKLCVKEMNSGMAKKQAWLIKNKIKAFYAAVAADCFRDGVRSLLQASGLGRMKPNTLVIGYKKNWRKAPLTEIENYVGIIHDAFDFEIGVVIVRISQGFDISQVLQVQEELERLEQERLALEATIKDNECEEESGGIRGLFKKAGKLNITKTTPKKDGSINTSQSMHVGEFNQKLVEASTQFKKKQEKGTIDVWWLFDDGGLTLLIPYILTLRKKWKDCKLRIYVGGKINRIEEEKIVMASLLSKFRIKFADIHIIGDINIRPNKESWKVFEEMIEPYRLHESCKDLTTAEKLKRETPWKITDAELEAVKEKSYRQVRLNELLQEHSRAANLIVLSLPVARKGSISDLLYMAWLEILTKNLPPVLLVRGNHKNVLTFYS
# Assay: Thallium-based assay in NKCC2-transfected HEK293 cells
# Assay type: cell-based
# Details: 10 μM; NKCC2-transfected HEK293; Table 2
# Source text: The Thallium-based assay is a standard assay used to measure activity of potassium transporters, like NKCC2 which is a sodium potassium and chloride co-transporter. The assay consists on the monitoring of the cells upon the application of thallium (which mimic K^+) and consequently NaCl, which entering into cells by NKCC2, activated by the presence of the chloride ions, binds the fluorescent dye, thus determining a fluorescence increase. This assay involves parallel testing in 96 wells for a quick and easy drug screening. In detail, kidney epithelial cells (HEK293) were transfected with NKCC2 transporters, or a mock construct (control). After two days, the cells were loaded with a thallium-sensitive fluorescent dye in a Cl-free medium. After 1 hour of incubation, the inhibitory activity of bumetanide and furosemide (as positive controls) and the new compounds by monitoring fluorescence upon application of thallium (to mimic K) and subsequently NaCl were tested. When entering cells by NKCC2 (activated by the presence of Cl), thallium binds the fluorescent dye and increases fluorescence. […] A decreased fluorescence in the mock-transfected cells treated with bumetanide and furosemide was observed. […] This latter result was used to normalize the fluorescence measurements obtained with the assay. In particular, the ΔF/F0 value of the mock-transfected cells (both control and treated) was subtracted from the respective ΔF/F0 value of the cells transfected with the Cl transporters. With this assay, the novel chemical entities were tested for their ability to block NKCC2 (Results in Table 2).
# The arrow indicates the addition of thallium (final concentration 2 mM) and NaCl stimulus (135 mM) used to initiate the flux assay. b) Quantification of the effect of bumetanide, furosemide and 3 example compounds (3.8, 3.13, 3.17) in the thallium-based assay on NKCC2-transfected HEK293 cells. Data represents mean±sem from 5 independent experiments, and they are represented as % of the controls. *P<0.05, **P<0.01, ***P<0.001 Kruskal-Wallis Anova (Dunn's Post hoc Test); ###P<0.001 two-tailed unpaired Student t-test.
row,inhibition at 10 µM [%],Structure (SMILES)
1,0,"CNS(=O)(=O)c1cc([N+](=O)[O-])ccc1NCCC(C)(C)C [Compound 1.13, 2-(3,3-dimethylbutylamino)-N-methyl-5-nitro-benzenesulfonamide]"
2,14,"CCCCCCNc1cc(Cl)c(C(=O)O)cc1S(N)(=O)=O [Compound 2.3, 2-chloro-4-(hexylamino)-5-sulfamoyl-benzoic acid]"
3,0,"CC(C)(C)CCNc1ccc([N+](=O)[O-])cc1S(N)(=O)=O [Compound 1.9, 2-(3,3-dimethylbutylamino)-5-nitro-benzenesulfonamide]"
4,0,"CC(C)(C)CCNc1cc(Cl)c(C(=O)O)cc1S(N)(=O)=O [Compound 2.5, 2-chloro-4-(3,3-dimethylbutylamino)-5-sulfamoyl-benzoic acid]"
5,16,"CCCCCCCCNc1cc(Cl)c(C(=O)O)cc1S(N)(=O)=O [Compound 2.4, 2-chloro-4-(octylamino)-5-sulfamoyl-benzoic acid]"

# Further lines, the compound ahead of its results:
row,Structure (SMILES),inhibition at 10 µM [%]
1,"CCCCCCNc1ccc([N+](=O)[O-])cc1S(=O)(=O)NC [Compound 1.11, 2-(hexylamino)-N-methyl-5-nitro-benzenesulfonamide]",0
2,"CCCCCCCCNc1ccc([N+](=O)[O-])cc1S(=O)(=O)N(C)C [Compound 1.16, N,N-dimethyl-5-nitro-2-(octylamino)benzenesulfonamide]",0
3,"CCCCCCNc1ccc([N+](=O)[O-])cc1S(=O)(=O)N(C)C [Compound 1.15, 2-(hexylamino)-N,N-dimethyl-5-nitro-benzenesulfonamide]",0
4,"CCCCCCCCNc1ccc([N+](=O)[O-])cc1S(N)(=O)=O [Compound 1.8, 5-nitro-2-(octylamino)benzenesulfonamide]",10
5,"CN(C)S(=O)(=O)c1cc([N+](=O)[O-])ccc1NCCC(C)(C)C [Compound 1.17, 2-(3,3-dimethylbutylamino)-N,N-dimethyl-5-nitro-benzenesulfonamide]",13
6,"CCCCCCCCNc1ccc([N+](=O)[O-])cc1S(=O)(=O)NC [Compound 1.12, N-methyl-5-nitro-2-(octylamino)benzenesulfonamide]",0
7,"CCCCNc1ccc([N+](=O)[O-])cc1S(=O)(=O)NC [Compound 1.10, 2-(butylamino)-N-methyl-5-nitro-benzenesulfonamide]",0
8,"CCCCNc1ccc([N+](=O)[O-])cc1S(N)(=O)=O [Compound 1.6, 2-(butylamino)-5-nitro-benzenesulfonamide]",4
9,"CCCCNc1ccc([N+](=O)[O-])cc1S(=O)(=O)N(C)C [Compound 1.14, 2-(butylamino)-N,N-dimethyl-5-nitro-benzenesulfonamide]",0
